Here are results for 3 compounds from paper PMC7072648, “N-(2-Hydroxyphenyl)-1-[3-(2-oxo-2,3-dihydro-1H- benzimidazol-1-yl)propyl]piperidine-4-Carboxamide (D2AAK4), a Multi-Target Ligand of Aminergic GPCRs, as a Potential Antipsychotic” (Biomolecules, 2020).

“And” between values parts separate entries of the source, which are not always exact repeats. Identical values can stand only once.

A word on the IC50: it is the midpoint of a concentration-inhibition curve.

The target in data set [1] is T1, human 5-HT2A receptor (Homo sapiens, UniProt P28223).
T1 construct: expressed in transfected cells
As to conditions: atypical antipsychotics, literature values, no reference given; cited from earlier work.

Data set [2] has as its system mice. Description: Passive avoidance (PA) task, memory consolidation. In kind it is in vivo. As to conditions: 100 mg/kg i.p. immediately after pretest, retest 24 h later; p < 0.0001 vs vehicle. On the procedure: The PA apparatus was described previously. The PA procedure was also previously described.
Mice received D2AAK4 immediately after being pretested on Day 1, and then they were retested (without injections) 24 h later. The changes in PA performance were calculated as the difference between retention and training latencies (i.e., latency index (IL)). More specifically, IL was calculated for each animal and presented as the ratio (as described in [12, 29]).

Data set [3] has as its target T2, human D2S receptor (Homo sapiens, UniProt P14416).
T2 construct: expressed in transfected cells
The data set can be described thus: Radioligand binding assay at human D2 receptor. As to conditions: mean ± SEM, two independent experiments in duplicate; read-out: pKi hD2 (converted). Here is the method: Radioligand binding assays were performed on cell membrane preparations from cell lines stably expressing the human cloned receptors. Chinese hamster ovary K1 (CHO-K1) cell lines stably expressing human D2S, 5-HT2A or H1 receptors and human embryonic kidney 293 (HEK293) cell lines stably expressing human 5-HT1A or 5-HT7(a) receptors were in-house available, whereas CHO-K1 cell lines stably expressing human D1 or D3 receptors (Perkin Elmer, Waltham, MA, USA) and Chem-1 cell line stably expressing human M1 receptor (Millipore, Merck KGaA, Darmstadt, Germany) were commercially available. Experimental conditions for binding assays at D1, D2, D3, 5-HT1A and 5-HT2A receptors have been previously reported. 0.7 nM [^3H]-SCH23390, 2 nM [^3H]-SB269970 (5-HT7), 2 nM [^3H]-Pyrilamine (H1) and 2 nM [^3H]-Pirenzepine (M1) were employed as radioligands. […] Affinity (equilibrium dissociation constant (Ki) and pKi (−logKi)) values were calculated as previously reported. Affinity values of reference compounds that were assayed in parallel to D2AAK4 as internal controls in the binding assays are given in Supplementary Figure S1 (legend).

The next data set concerns the target T3, human M1 receptor (Homo sapiens, UniProt P11229).
T3 sequence (P11229 1-460): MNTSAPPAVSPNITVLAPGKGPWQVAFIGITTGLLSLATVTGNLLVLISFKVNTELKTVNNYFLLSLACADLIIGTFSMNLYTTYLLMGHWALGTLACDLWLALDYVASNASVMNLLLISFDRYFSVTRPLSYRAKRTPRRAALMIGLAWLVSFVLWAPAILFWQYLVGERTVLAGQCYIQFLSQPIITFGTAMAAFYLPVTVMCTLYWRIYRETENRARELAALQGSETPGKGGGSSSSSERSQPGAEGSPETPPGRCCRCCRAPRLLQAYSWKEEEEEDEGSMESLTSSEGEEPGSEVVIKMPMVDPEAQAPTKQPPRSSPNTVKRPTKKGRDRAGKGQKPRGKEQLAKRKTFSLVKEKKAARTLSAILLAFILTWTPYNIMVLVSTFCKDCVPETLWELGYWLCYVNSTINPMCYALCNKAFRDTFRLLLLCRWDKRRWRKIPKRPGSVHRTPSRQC
Description: Radioligand binding assay at human M1 receptor. As to conditions: mean ± SEM; full displacement not achieved at maximum concentration, pKi could be not accurately estimated; read-out: pKi hM1 (converted). Here is the method: (§1) Radioligand binding assays were performed on cell membrane preparations from cell lines stably expressing the human cloned receptors. […] Experimental conditions for binding assays at D1, D2, D3, 5-HT1A and 5-HT2A receptors have been previously reported. 0.7 nM [^3H]-SCH23390, 2 nM [^3H]-SB269970 (5-HT7), 2 nM [^3H]-Pyrilamine (H1) and 2 nM [^3H]-Pirenzepine (M1) were employed as radioligands. […] Affinity (equilibrium dissociation constant (Ki) and pKi (−logKi)) values were calculated as previously reported. Affinity values of reference compounds that were assayed in parallel to D2AAK4 as internal controls in the binding assays are given in Supplementary Figure S1 (legend).

The next data set deals with human D3 receptor (Homo sapiens, UniProt P35462). Description: Radioligand binding assay at human D3 receptor. As to conditions: mean ± SEM, two independent experiments in duplicate; read-out: pKi hD3 (converted). Here is the method: as §1
Data set [4] deals with mice. Description: Amphetamine-induced hyperactivity. As to conditions: 100 mg/kg i.p. coadministered with amphetamine 5 mg/kg s.c.; p < 0.001 vs amphetamine-treated group.
Data set [5] has as its system mice. The data set can be described thus: Elevated plus maze (EPM) test. It counts as in vivo. As to conditions: 100 mg/kg i.p., 30 and 60 min after administration. Here is the method:
The EPM apparatus was used as described previously. The EPM procedure was described in our previous papers. The percentage (%) of time spent in the open arms and % of entries into the open arms were calculated. Moreover, the number of entries into the closed arms was recorded as the motor activity indicator of tested mice.
To determine D2AAK4 acute effect on anxiety-like behavior, the studied compound (100 mg/kg; i.p.) (n = 8) or vehicle (i.p.) (n = 8) was injected 30 and 60 min before the EPM test.

Another data set addresses human D1 receptor (Homo sapiens, UniProt P21728). Description: Radioligand binding assay at human D1 receptor. As to conditions: mean ± SEM, two independent experiments in duplicate; read-out: pKi hD1 (converted). On the procedure:
as §1

Another data set addresses T4, human 5-HT7(a) receptor (Homo sapiens, UniProt P34969).
T4 construct: expressed in transfected cells
Description: Radioligand binding assay at human 5-HT7 receptor. As to conditions: mean ± SEM; full displacement not achieved at maximum concentration, pKi could be not accurately estimated; read-out: pKi h5-HT7 (converted). On the procedure: as §1

For a further data set, the target named is T5, human H1 receptor (Homo sapiens, UniProt P35367).
T5 construct: expressed in transfected cells
The data set can be described thus: Radioligand binding assay at human H1 receptor. Particulars: mean ± SEM, two independent experiments in duplicate; read-out: pKi hH1 (converted). Here is the method:
as §1

In data set [6] the target is T1, human 5-HT2A receptor. Description: Radioligand binding assay at human 5-HT2A receptor. On the procedure: as §1
In data set [7] the target is T1, human 5-HT2A receptor. The data set can be described thus: Functional assay of inositol phosphate (IP) production at 5-HT2A receptors (CHO-K1 cells). In kind it is cell-based.
The subject of data set [8] is mice. Description: Motor coordination, rotarod and chimney tests. Particulars: 100 mg/kg i.p., 60 min after injection. In kind it is in vivo. On the procedure: Motor coordination has been assessed in mice using the rotarod test and the chimney test using the same procedure as described in our earlier work. […] D2AAK1 was previously studied using the same dose so we decided to select the dose of 100 mg/kg.
A general note: Falling from the rotarod earlier than controls is read as motor impairment.

Data set [9] addresses T2, human D2S receptor. Particulars: 10 µM compound versus 10 µM dopamine, cAMP assay; cited from earlier work.
The target in another data set is T6, human 5-HT1A receptor (Homo sapiens, UniProt P08908).
T6 construct: expressed in transfected cells
T6 sequence (P08908 1-422): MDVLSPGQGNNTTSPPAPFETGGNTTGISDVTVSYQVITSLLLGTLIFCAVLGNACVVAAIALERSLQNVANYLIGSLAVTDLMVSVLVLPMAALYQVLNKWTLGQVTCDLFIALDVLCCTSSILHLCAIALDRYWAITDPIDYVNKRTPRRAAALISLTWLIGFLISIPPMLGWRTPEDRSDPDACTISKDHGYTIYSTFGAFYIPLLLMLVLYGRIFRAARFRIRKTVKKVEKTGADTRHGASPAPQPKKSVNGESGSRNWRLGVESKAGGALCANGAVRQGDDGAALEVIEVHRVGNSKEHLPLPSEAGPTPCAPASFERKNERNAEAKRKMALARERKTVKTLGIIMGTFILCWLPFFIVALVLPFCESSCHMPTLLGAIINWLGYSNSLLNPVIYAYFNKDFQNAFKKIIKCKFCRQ
Description: Radioligand binding assay at human 5-HT1A receptor. As to conditions: mean ± SEM, read-out: % inh. at 10 μM (5-HT1A). On the procedure:
as §1

The target of data set [10] is T2, human D2S receptor. The data set can be described thus: Functional assay of cAMP signaling at D2 receptors (CHO-K1 cells). It counts as cell-based.
Description: Compound was initially assessed at 10 µM concentration either as agonist or as antagonist of 10 µM dopamine response. Dopamine (10 nM–1 mM) was used as reference agonist in these assays.

T2 sequence (P14416 1-414 isoform P14416-2): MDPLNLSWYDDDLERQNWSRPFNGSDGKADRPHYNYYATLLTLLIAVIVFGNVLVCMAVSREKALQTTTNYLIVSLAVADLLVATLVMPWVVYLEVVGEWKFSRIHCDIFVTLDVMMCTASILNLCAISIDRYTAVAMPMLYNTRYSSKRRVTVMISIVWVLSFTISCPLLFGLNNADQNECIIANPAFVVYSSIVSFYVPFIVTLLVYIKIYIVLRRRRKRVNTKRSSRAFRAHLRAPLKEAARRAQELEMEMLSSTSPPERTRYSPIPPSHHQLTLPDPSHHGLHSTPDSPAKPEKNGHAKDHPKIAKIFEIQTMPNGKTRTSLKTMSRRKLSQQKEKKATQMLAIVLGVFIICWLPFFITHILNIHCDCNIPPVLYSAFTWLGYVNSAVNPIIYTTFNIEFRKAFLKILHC
T1 sequence (P28223 whole entry): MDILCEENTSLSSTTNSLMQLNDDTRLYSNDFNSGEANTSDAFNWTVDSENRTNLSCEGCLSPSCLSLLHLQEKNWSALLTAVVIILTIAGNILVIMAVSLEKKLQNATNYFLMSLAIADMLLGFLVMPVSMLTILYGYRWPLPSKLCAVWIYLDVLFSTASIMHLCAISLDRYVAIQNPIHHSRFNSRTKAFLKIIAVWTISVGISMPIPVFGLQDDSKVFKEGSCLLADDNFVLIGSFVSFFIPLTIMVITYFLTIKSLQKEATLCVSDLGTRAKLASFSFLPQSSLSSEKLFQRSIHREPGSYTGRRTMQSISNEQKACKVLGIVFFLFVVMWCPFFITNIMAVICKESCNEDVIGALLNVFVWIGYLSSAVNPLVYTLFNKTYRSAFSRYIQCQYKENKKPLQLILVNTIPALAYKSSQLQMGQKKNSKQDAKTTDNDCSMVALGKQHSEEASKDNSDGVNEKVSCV
Sequence of human D1 receptor (P21728 whole entry): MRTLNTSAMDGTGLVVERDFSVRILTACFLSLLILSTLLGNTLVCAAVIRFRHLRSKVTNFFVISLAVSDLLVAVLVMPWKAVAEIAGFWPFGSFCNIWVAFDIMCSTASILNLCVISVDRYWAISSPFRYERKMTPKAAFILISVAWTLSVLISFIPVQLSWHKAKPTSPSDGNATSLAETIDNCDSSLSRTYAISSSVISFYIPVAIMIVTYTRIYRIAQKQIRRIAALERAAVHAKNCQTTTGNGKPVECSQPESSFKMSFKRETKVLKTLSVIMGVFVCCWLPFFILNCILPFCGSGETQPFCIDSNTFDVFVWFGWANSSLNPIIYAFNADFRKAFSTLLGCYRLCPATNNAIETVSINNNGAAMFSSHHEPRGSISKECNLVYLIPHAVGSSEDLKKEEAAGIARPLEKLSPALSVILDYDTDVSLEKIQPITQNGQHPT
T4 sequence (P34969 1-445 isoform P34969-2): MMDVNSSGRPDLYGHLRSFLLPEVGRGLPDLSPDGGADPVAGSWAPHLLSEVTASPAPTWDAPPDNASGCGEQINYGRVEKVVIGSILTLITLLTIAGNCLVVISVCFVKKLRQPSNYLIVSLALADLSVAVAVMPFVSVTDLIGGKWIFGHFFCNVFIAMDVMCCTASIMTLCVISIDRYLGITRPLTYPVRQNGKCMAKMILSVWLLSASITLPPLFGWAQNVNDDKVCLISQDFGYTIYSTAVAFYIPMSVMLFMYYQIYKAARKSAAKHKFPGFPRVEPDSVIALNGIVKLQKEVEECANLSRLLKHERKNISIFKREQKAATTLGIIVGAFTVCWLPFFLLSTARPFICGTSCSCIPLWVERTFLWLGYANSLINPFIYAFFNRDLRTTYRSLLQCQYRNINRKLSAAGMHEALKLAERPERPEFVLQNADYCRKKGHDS
T5 sequence (P35367 whole entry): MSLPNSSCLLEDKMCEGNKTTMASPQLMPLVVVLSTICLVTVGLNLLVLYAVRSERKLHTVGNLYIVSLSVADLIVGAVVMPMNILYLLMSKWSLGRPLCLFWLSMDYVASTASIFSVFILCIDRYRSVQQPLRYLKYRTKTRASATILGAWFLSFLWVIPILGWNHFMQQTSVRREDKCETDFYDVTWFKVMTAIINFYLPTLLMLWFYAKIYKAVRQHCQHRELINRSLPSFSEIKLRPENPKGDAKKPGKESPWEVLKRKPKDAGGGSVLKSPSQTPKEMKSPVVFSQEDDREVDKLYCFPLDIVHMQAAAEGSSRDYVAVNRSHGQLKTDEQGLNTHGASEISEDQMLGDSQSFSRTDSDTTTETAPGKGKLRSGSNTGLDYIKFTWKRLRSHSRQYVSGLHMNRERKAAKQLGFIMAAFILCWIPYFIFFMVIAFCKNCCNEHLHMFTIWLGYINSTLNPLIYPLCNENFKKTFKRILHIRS
Sequence of human D3 receptor (P35462 whole entry): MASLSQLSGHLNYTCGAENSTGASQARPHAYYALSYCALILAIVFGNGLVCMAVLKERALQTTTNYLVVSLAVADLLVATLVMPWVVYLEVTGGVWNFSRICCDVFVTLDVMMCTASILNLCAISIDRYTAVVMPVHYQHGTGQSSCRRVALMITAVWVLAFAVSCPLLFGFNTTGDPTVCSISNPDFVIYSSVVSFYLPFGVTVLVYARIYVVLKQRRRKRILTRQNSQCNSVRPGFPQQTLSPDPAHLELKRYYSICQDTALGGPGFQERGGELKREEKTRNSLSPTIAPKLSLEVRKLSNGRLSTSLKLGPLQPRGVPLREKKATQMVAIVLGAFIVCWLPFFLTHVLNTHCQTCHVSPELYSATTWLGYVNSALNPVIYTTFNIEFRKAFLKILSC

As to `Cc1nc2n(c(=O)c1CCN1CCC(c3noc4cc(F)ccc34)CC1)CCCC2O` (stereo not shown) [paliperidone], the 5-HT2A/D2 affinity ratio at human 5-HT2A receptor [1] is 2.16.
Turning to `O=C(Nc1ccccc1O)C1CCN(CCCn2c(=O)[nH]c3ccccc32)CC1` [D2AAK4, N-(2-hydroxyphenyl)-1-[3-(2-oxo-2,3-dihydro-1H-benzimidazol-1-yl)propyl]piperidine-4-carboxamide], the “latency index (IL) values, memory consolidation” value in the data set with mice [2] was “statistically significant increase”. In addition, the Ki on human D2S receptor [3] was 1860 nM; at human M1 receptor it was 3.89 µM; on human D3 receptor, 9.33 µM; on human D1 receptor it was 2510 nM; at human 5-HT7(a) receptor, 6.61 µM; at human H1 receptor, 3.89 µM. Moreover, the Ki on human 5-HT2A receptor [6] (mean ± SEM, three independent experiments in duplicate, read-out: pKi h5-HT2A (converted)) was 490 nM. In the data set with mice [4], the amphetamine-induced hyperactivity entry was “decreased amphetamine-induced hyperactivity”. The “% of the time spent in the open arms” value in the data set on mice [5] (p < 0.0001) is given as “decrease”. For the same compound, the “% of the open arm entries” value in the data set with mice [5] (p = 0.0272 and p = 0.0092) was “decrease”. The “5-HT2A/D2 affinity ratio (Ki D2/Ki 5-HT2A), times higher affinity for 5-HT2A” value at human 5-HT2A receptor [6] (5-HT2A versus D2 receptor) came to 3.67 times. Also, at human 5-HT2A receptor [7] (0.1 nM to 100 µM), the “agonist efficacy at 5-HT2A (IP signaling)” value is on record as “unable to promote IP signaling”. Also, the inhibition at 10 µM on human 5-HT2A receptor [7] (CHO-K1, read-out: % inh. at 10 µM (inhibition of 5-HT response), h5-HT2A, 10 µM compound versus 1 µM 5-HT, IP assay) was 97.4 ± 1.6%; at human 5-HT1A receptor it was 9.7 ± 0.4%. The IC50 at human 5-HT2A receptor [7] (versus 1 µM 5-HT-stimulated IP production, read-out: IC50, 5-HT2A antagonist) came to 714 nM. Also, the “motor coordination in rotarod and chimney tests” value in the data set on mice [8] is recorded as “does not impair mouse motor coordination”. Further, the “% inh. at 10 µM (inhibition of dopamine response), hD2” value at human D2S receptor [9] was 12.1 ± 6.0% and 12%. In addition, the “% inh. at 100 µM (inhibition of dopamine response), hD2” value at human D2S receptor [10] (100 µM compound (maximal assayed) versus 10 µM dopamine, cAMP assay) was found to be 44%. For the same compound, the inhibition at 100 µM at human D2S receptor [10] (CHO-K1, read-out: % inh. at 100 µM (inhibition of dopamine response), hD2, 100 µM compound (maximal assayed) versus 10 µM dopamine, cAMP assay) amounted to 44.1 ± 1.5%.
In the case of `O=C1Cc2cc(CCN3CCN(c4nsc5ccccc45)CC3)c(Cl)cc2N1` [ziprasidone], on human 5-HT2A receptor [1], the 5-HT2A/D2 affinity ratio is ~ 5.60.
